# Assay results taken from patent US20210348124A1, “SEBACEOUS GLAND ORGANOIDS AND USE THEREOF” (TECHNION RESEARCH & DEVELOPMENT FOUNDATION LIMITED, priority 2018, published 2021).
# How the values were obtained:
# Format in all cases: cell-based, mouse
# DBL-treated organoids [1] = test: Drug treatment of DBL-treated SG organoids (size, ORO, Ki67, cell size); details: for organoid size: then drug for three days
# Description: With a system that recapitulates important aspects of acne vulgaris, the extent that currently prescribed medications could affect its development was examined. Retinoids are derivatives of vitamin A, which serve as the first-line treatment for acne. Specifically, all-trans-Retinoic acid (ATRA; Tretinoin), formulated ATRA (Ret-Avit) and 13-cis RA (Isotrtinoin) are used worldwide. […] The differentiation program in the SG is a multi-step process. Cells prior to the onset or during early stage of differentiation express AR, which is known to reside upstream and lead to the expression of F[…]. […] Therefore, it was hypothesized that inhibition of c-Myc could serve as a beneficial treatment of acne vulgaris. For this aim, the 10058-F4 c-Myc inhibitor was administered to DBL-treated organoids and size, proliferation and differentiation were monitored.
# [2] = tested on: Blimp1−YFP+-derived sebaceous gland organoids; test: SG organoids treated with c-Myc inhibitor: size, cell size/number, proliferation, lipid staining
# Experimental: For organoid generation a total of ˜1000 cells were mixed with 50 μl of Matrigel (BD Bioscience) and plated in 24-well plates. After polymerization of Matrigel, 500 μl of HFSC media containing growth factors; 20 ng ml-1 hFGF (Peprotech), 40 ng ml-1 mEGF (Peprotech), 500 ng ml-1 hR-spondin 1, 100 ng ml-1 mNoggin (Peprotech) and B-27 Supplement (50×) (Invitrogen)) was added. Organoid treatment with cMyc inhibitor 10058-F4 (50 Tocris Bioscience) or DMSO (as control) was performed for 4 days and renewed upon media change. Organoids were fixed in 4% PFA for 1 hour for immunofluorescence analysis or harvested for RNA extraction. Antibody staining was visualized using secondary antibodies conjugated to Alexa Fluor-488, Alexa Fluor-546, and Alexa Fluor-633. Analysis was performed on Zeiss LSM 880 confocal microscope. Oil-red-O (ORO) staining was performed by incubating samples in 0.18% ORO for 20 min and washing with PBS. Next, the effect of inhibiting c-Myc activity by administering the specific c-Myc inhibitor, 10058-F4 was monitored. […] Six-day old SG organoids were supplemented with the c-Myc inhibitor for 4 days. […] Since the effect on organoid size could result from either altered cell size or number both scenarios were examined. […] Whether the effect of c-Myc inhibition originates from an effect on cell proliferation and/or differentiation was examined next. Employing IF staining with two proliferative markers, Ki67 and MCM2, indicated a significant decline in Ki67+ (69%) and MCM2+ (72%) proliferative cells (FIG. 4J-L). […] This is in line with the reported role of c-Myc in regulating differentiation in the SG in vivo. […] Next, using Real time (RT)-PCR analysis, the levels of transcripts that are expressed in either SG differentiating or differentiated cells, which play a key role in this process were examined. Inhibition of c-Myc decreased the levels of all examined factors including Androgen Receptor (AR) and fatty acid synthase (FASN) (FIG. 4O).
# [3] = tested on: Blimp1−YFP+-derived sebaceous gland organoids; test: Real-time PCR of sebocyte differentiation markers in c-Myc inhibitor-treated SG organoids; details: RT-PCR, inhibitor for 4 days
# Experimental: Organoid treatment with cMyc inhibitor 10058-F4 (50 Tocris Bioscience) or DMSO (as control) was performed for 4 days and renewed upon media change. Organoids were fixed in 4% PFA for 1 hour for immunofluorescence analysis or harvested for RNA extraction.
# (§1) RNA extraction, reverse transcription and real-time PCR: RNA was isolated using Trizol (Sigma) and up to 2 μg of RNA were subjected to cDNA synthesis (Applied Biosystems). Real time PCR was carried out using the PerfeCTa SYBR Green FastMix (Quanta), with the following gene-specific primers: RpLO: […] (SEQ ID NO: 1) and ATCTGCTTGGAGCCCACAT (SEQ ID NO: 2); AR: […] (SEQ ID NO: 3) and […] (SEQ ID NO: 4); PPAR-gamma: […] (SEQ ID NO: 5) and […] (SEQ ID NO: 6); PPAR-beta: TTCCTTCCAGCAGCTGTG (SEQ ID NO: 7) and TCGCACGCGTGGACC (SEQ ID NO: 8); FASN: […] (SEQ ID NO: 9) and […] (SEQ ID NO: 10). Amplicon levels were analyzed in triplicate and quantitated relative to a standard curve comprising cDNA, and values normalized to levels of the housekeeping gene (Rpl0). Reactions were: 3 min at 95° C., then 40 cycles of 10 sec at 95° C. and 30 sec at 60° C. with addition of melt curve step: 10 sec at 95° C., and increments of 0.5° C. every 5 sec between 65° C. and 95° C.
# This is in line with the reported role of c-Myc in regulating differentiation in the SG in vivo. […] Next, using Real time (RT)-PCR analysis, the levels of transcripts that are expressed in either SG differentiating or differentiated cells, which play a key role in this process were examined. Inhibition of c-Myc decreased the levels of all examined factors including Androgen Receptor (AR) and fatty acid synthase (FASN) (FIG. 4O).
# DBL-treated organoids [4] = test: RT-PCR of DBL-treated SG organoids after drug treatment; details: then drug
# Experimental: as §1
# The differentiation program in the SG is a multi-step process. Cells prior to the onset or during early stage of differentiation express AR, which is known to reside upstream and lead to the expression of FASN35.
# Retinols, such as 13-cis RA, are known to have severe side-effects and concerns have been raised regarding the teratogenicity of these compounds. This highlights the immediate need for alternative treatments. […] Therefore, it was hypothesized that inhibition of c-Myc could serve as a beneficial treatment of acne vulgaris. For this aim, the 10058-F4 c-Myc inhibitor was administered to DBL-treated organoids and size, proliferation and differentiation were monitored.
# SG organoids = test: Acne vulgaris model: DHT, BRL, LIN administered to SG organoids (size, ORO, Ki67); details: administration to organoids (single agents for 7 days; combinations)
# Experimental: Therefore, as a first step, the potent dihydrotestosterone (DHT) androgen, the PPAR-γ BRL-49653 (BRL) activator and linoleic acid (LIN) known to activate PPAR-B38 were administered to organoids.
# SG organoid = SG organoid as model organ to test drugs (caspase-3 inhibitors, Tretinoin); details: for attenuation of SG organoid size: 100 uM, after 72 hours
# Experimental: Organoids were generated as described herein and treated with two caspase-3 inhibitors (zDEVD-fmk at 100 uM and […] at 100 uM) to assess their effect on the SG. A known anti-acne drug, Tretinoin (10-100 uM) was also added as a positive control.
# [5] = tested on: freshly isolated α6+; ScaI−; Blimp1−YFP+ cells; test: Organoid generation from primary cells directly seeded in Matrigel with ROCK inhibitor; details: cultures supplemented with ROCK inhibitor and GFs
# Description: It was next examined if these Blimp1+ cell-derived organoids could be generated by isolating primary α6+; ScaI−; Blimp1−YFP+ cells and directly seeding them into Matrigel without a pre-culturing phase. […] Thus, these cultures were supplemented with a ROCK inhibitor (Y27632), which prevents cell-cell interaction-dependent anoikis.
# [6] = IF staining, inhibitor for 4 days
# [7] = six-day old SG organoids, inhibitor for 4 days
smiles,measurement,setting,value
"CC1=C(/C=C/C(C)=C/C=C/C(C)=C\C(=O)O)C(C)(C)CCC1 [13-cis RA, 13-cis-Retinoic acid]",number of ORO+ cells,DBL-treated organoids [1]; then drug,heightened number
same,organoid size,DBL-treated organoids [1],significant decrease
"CCc1ccc(C=C2SC(=S)NC2=O)cc1 [10058-F4, 5-[(4-Ethylphenyl)methylene]-2-thioxo-4-thiazolidinone]",decline in Ki67+ proliferative cells,[2]; [6],69%
same,decline in MCM2+ proliferative cells,[2]; [6],72%
same,lipid levels (ORO dye staining),[2]; inhibitor for 4 days,significant decrease
same,decrease in organoid size,"[2]; six-day old SG organoids, c-Myc inhibitor for 4 days, vs DMSO control",~40%
same,"decline in cell diameter, cells in the inner compartment",[2]; [7],~40%
same,diameter of individual cells in the outer proliferating layer of the organoid,[2]; [7],modest size decrease
same,localization of c-Myc,[2]; [7],did not affect
same,number of cells in the outer ring of the organoids,[2]; [7],decreased
same,Androgen Receptor (AR) transcript level,[3],decreased
same,PPAR-β transcript level,[3],significantly attenuated
same,PPAR-γ transcript level,[3],significantly attenuated
same,fatty acid synthase (FASN) transcript level,[3],decreased
same,decrease in the number of Ki67+ cells,DBL-treated organoids [1]; then drug,more than 80%
same,number of ORO+ cells,DBL-treated organoids [1]; then drug,significant decrease
same,size of individual inner cells,DBL-treated organoids [1]; then drug,decrease
same,organoid size,DBL-treated organoids [1],significant decrease
same,expression levels of lipid synthesis genes,DBL-treated organoids [4],significantly lower
same,mRNA level of Cyclin D1,DBL-treated organoids [4],significant decrease
same,mRNA level of c-Myc,DBL-treated organoids [4],significant decrease
"C[C@]12CCC(=O)C[C@@H]1CC[C@@H]1[C@@H]2CC[C@]2(C)[C@@H](O)CC[C@@H]12 [DHT, dihydrotestosterone]",size of individual SG organoids,SG organoids,significantly increased
CC(=O)OCCN1C(=O)c2c(C)nc3ccc(S(=O)(=O)N4CCOCC4)cc3c2C1=O [Ivachtin],attenuation of SG organoid size,SG organoid,about 30%
"CCCCC/C=C\C/C=C\CCCCCCCC(=O)O [LIN, linoleic acid]",size of individual SG organoids,SG organoids,significantly increased
"CC1=C(/C=C/C(C)=C/C=C/C(C)=C/C(=O)O)C(C)(C)CCC1 [Tretinoin, all-trans-Retinoic acid]",reduction of SG organoid size compared with the caspase-3 inhibitors,"SG organoid; 10-100 uM, positive control",very similar
same,number of ORO+ cells,DBL-treated organoids [1]; then drug,heightened number
same,organoid size,DBL-treated organoids [1],significant decrease
C[C@@H](N)[C@H]1CC[C@H](C(=O)Nc2ccncc2)CC1 [Y27632],organoid generation from primary cells seeded into Matrigel without pre-culturing,[5],"able to give rise to organoids, although at a lower efficiency"
COC(=O)CC[C@H](NC(=O)[C@H](CC(=O)OC)NC(=O)OCc1ccccc1)C(=O)N[C@H](C(=O)N[C@@H](CC(=O)OC)C(=O)CF)C(C)C [zDEVD-fmk],attenuation of SG organoid size,SG organoid,about 30%
same,cells positive for Ki67,SG organoid; caspase-3 inhibitor treatment,greatly reduced
same,cells positive for MCM2,SG organoid; caspase-3 inhibitor treatment,greatly reduced
